Data as given in US20060074243A1, “Hydroxamic acid and amide compounds and their use as protease inhibitors” (Pharmacia Corporation, priority 2002, published 2006).
pKi: −log10 of the molar value.

Experiments:
Test in all cases: In vitro MMP inhibition analysis (fluorogenic peptide substrate cleavage), Ki
Assay type in all cases: biochemical
Conditions in all cases: Table 2
Human recombinant MMP-1 = target: T1, Human recombinant MMP-1 (Homo sapiens, UniProt P03956)
T1 construct: made in house; host or cells: MMP-1-transfected HT-1080 cells (spent media)
T1 sequence (P03956 100-469): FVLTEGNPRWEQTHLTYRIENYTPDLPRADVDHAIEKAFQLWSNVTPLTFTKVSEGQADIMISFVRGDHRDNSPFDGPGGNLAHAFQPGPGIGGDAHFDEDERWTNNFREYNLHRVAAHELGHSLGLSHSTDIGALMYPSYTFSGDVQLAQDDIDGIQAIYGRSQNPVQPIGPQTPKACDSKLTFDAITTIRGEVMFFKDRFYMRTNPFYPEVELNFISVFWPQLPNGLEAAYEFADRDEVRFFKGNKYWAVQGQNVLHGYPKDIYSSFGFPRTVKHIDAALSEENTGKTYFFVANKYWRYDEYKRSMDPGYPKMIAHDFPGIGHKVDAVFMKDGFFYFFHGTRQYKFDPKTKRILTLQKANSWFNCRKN
In short: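 APMA- or trypsin-activated recombinant human MMP-1 (purified from transfected HT-1080 medium) with 4 μM MCA/Dpa quenched fluorogenic peptide, 1 h at room temperature in Tris/NaCl/CaCl2 buffer pH 7.5; fluorescence ex 330/em 420 nm. Ki from Morrison-equation fit of rates, substrate at or below Km, uncorrected.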

Human recombinant MMP-9 = target: T2, Human recombinant MMP-9 (Homo sapiens, UniProt P14780)
T2 construct: made in house; host or cells: MMP-9-transfected HT1080 cells (spent media)
In short: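 Recombinant MMP-9 purified from transfected HT1080 cell media, activated with APMA, trypsin or recombinant MMP-3, assayed in Tris buffer pH 7.5 with CaCl2 and 4 μM fluorogenic MCA/Dpa peptide, 1 h at room temperature (ex 330/em 420 nm). Ki from Morrison-equation regression of velocity; substrate at or below Km, uncorrected.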

Human recombinant MMP-13 = target: T3, Human recombinant MMP-13 (Homo sapiens, UniProt P45452)
T3 construct: made in house; host or cells: baculovirus / insect cells
In short: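 Baculovirus-expressed full-length MMP-13 proenzyme was purified on heparin-agarose and zinc-chelate columns, then APMA-activated. It cleaved 4 μM MCA/Dpa fluorogenic peptide in 100 mM Tris-HCl, 100 mM NaCl, 10 mM CaCl2, 0.05% Brij-23, pH 7.5, for 1 h at room temperature (ex 330/em 420 nm). Ki came from Morrison-equation fits with substrate ≤Km, uncorrected.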

T2 sequence (P14780 107-707 limits assumed): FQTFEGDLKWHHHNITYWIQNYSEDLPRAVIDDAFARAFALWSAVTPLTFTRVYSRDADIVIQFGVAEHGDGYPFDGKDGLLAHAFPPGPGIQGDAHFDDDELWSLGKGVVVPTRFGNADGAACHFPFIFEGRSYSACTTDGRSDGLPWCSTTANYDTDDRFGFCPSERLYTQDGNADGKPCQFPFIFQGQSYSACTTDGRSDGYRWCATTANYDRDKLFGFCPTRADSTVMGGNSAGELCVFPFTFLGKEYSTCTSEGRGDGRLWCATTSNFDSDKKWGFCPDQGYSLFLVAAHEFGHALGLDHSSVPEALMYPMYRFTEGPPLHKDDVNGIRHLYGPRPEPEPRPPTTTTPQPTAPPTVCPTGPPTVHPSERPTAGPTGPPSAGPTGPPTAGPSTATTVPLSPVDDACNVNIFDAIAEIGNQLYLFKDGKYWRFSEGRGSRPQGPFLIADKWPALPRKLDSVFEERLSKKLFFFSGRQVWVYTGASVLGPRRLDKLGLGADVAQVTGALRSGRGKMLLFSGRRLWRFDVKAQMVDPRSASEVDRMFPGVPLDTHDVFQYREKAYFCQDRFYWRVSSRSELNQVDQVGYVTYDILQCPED

Row | SMILES | pKi (Human recombinant MMP-1) | pKi (Human recombinant MMP-9) | pKi (Human recombinant MMP-13)
1 | COCCOc1ccc(-c2ccc(S(=O)(=O)C3(C(=O)NO)CCN(C4CC4)CC3)cc2)cc1 [Example 113] | 5.54 | 9.14 | 10.51
2 | COCCN1CCC(C(=O)NO)(S(=O)(=O)c2ccc(-c3ccc(OCCN4CCCC4)cc3)cc2)CC1 [Example 72] | < 5.00 | 7.89 | 8.65
3 | CCCCCc1ccc(-c2ccc(S(=O)(=O)C3(C(=O)NO)CCOCC3)cc2)c(F)c1 [Example 101] | 5.04 | 8.52 | 9.40
4 | O=C(NO)C1(S(=O)(=O)c2ccc(-c3cnccn3)cc2)CCOCC1 [Example 71] | 5.53 | 7.37 | 8.76
5 | CCOCCOc1ccc(-c2ccc(S(=O)(=O)C3(C(=O)NO)CCN(CCOC)CC3)cc2)cc1 [Example 117] | 5.31 | 8.41 | 10.43
6 | O=C(NO)C1(S(=O)(=O)c2ccc(-c3ccc(-c4ccccc4)cc3)cc2)CCOCC1 [Example 104] | 5.16 | 10.13 | 10.49
7 | COCCOc1ccc(-c2ccc(S(=O)(=O)C3(C(=O)NO)CCN(C4CC4)CC3)cc2)cc1F [Example 112] | 5.07 | 8.66 | 10.24
8 | COCCOc1ccc(-c2ccc(S(=O)(=O)C3(C(=O)NO)CCN(CCOC)CC3)cc2)cc1F [Example 114] | 5.18 | 8.56 | 10.38
9 | COCCOc1ccc(-c2ccc(S(=O)(=O)C3(C(=O)NO)CCN(CCOC)CC3)cc2)cc1 [Example 115] | 5.47 | 8.91 | 10.60
10 | CCN1CCC(C(=O)NO)(S(=O)(=O)c2ccc(-c3ccc(OCCOC)c(F)c3)cc2)CC1 [Example 110] | < 5.00 | 7.95 | 9.84
11 | CCOCCOc1ccc(-c2ccc(S(=O)(=O)C3(C(=O)NO)CCN(CC)CC3)cc2)cc1 [Example 116] | 5.05 | 8.03 | 10.30
12 | CCCCc1nc(-c2ccc(S(=O)(=O)C3(C(=O)NO)CCOCC3)cc2)no1 [Example 105] | < 5.00 | 8.67 | 8.44
13 | COc1ccc(-c2ccc(S(=O)(=O)C3(C(=O)NO)CCOCC3)cc2)cc1F [Example 102] | 6.17 | 9.00 | 10.12

The next lines start with the values.

Row | pKi (Human recombinant MMP-1) | pKi (Human recombinant MMP-9) | pKi (Human recombinant MMP-13) | SMILES
14 | 5.63 | 8.86 | 9.93 | CC(C)Cc1ccc(-c2ccc(S(=O)(=O)C3(C(=O)NO)CCOCC3)cc2)nc1 [Example 103]
15 | 6.00 | 8.51 | 9.83 | O=C(NO)C1(S(=O)(=O)c2ccc(-c3ccc(CCO)cc3)cc2)CCOCC1 [Example 98]
16 | 5.67 | 8.64 | 9.70 | CC(C)CCOc1ccc(-c2ccc(S(=O)(=O)C3(C(=O)NO)CCOCC3)cc2)cc1 [Example 108]
17 | 5.13 | 8.48 | 10.18 | CCN1CCC(C(=O)NO)(S(=O)(=O)c2ccc(-c3ccc(OCCOC)cc3)cc2)CC1 [Example 111]
18 | < 5.00 | 6.07 | 8.03 | COC(C)CCOc1ccc(-c2ccc(S(=O)(=O)C3(C(=O)NO)CCOCC3)cc2)cc1C(F)(F)F (stereo not drawn) [Example 100]
19 | 5.51 | 9.68 | 10.28 | CC(C)CCc1ccc(-c2ccc(S(=O)(=O)C3(C(=O)NO)CCOCC3)cc2)nc1 [Example 99]
